Test results: ChEMBL document CHEMBL1137964, “Synthesis and biological evaluation of 6-aryl-6H-pyrrolo[3,4-d]pyridazine derivatives: high-affinity ligands to the alpha 2 delta subunit of voltage gated calcium channels” (Bioorg Med Chem Lett, 2004)

What was measured:
[1] = Plasma concentration was determined in rats at 2 mg/kg, i.v. dose; assay type: ADME, organism-based; parameters: dose 2 mg/kg, route intravenous; details: rat, iv
[2] = Half-life period was determined in rats at 2 mg/kg, i.v. dose; assay type: ADME, organism-based; parameters: dose 2 mg/kg, route intravenous; details: rat, in vivo, iv
[3] = Maximum plasma concentration in rats at 10 mg/kg, p.o. dose; assay type: ADME, organism-based; parameters: dose 10 mg/kg, route oral; details: rat, po
[4] = target: Voltage-dependent calcium channel subunit alpha-2/delta-1 (Homo sapiens, UniProt P54289); test: Binding affinity for huamn alpha2-delta1 subunit of voltage gated calcium channel over-expressed in A710 cell membranes using [3H]-gabapentin
Sequence of Voltage-dependent calcium channel subunit alpha-2/delta-1 (P54289 25-956 limits assumed): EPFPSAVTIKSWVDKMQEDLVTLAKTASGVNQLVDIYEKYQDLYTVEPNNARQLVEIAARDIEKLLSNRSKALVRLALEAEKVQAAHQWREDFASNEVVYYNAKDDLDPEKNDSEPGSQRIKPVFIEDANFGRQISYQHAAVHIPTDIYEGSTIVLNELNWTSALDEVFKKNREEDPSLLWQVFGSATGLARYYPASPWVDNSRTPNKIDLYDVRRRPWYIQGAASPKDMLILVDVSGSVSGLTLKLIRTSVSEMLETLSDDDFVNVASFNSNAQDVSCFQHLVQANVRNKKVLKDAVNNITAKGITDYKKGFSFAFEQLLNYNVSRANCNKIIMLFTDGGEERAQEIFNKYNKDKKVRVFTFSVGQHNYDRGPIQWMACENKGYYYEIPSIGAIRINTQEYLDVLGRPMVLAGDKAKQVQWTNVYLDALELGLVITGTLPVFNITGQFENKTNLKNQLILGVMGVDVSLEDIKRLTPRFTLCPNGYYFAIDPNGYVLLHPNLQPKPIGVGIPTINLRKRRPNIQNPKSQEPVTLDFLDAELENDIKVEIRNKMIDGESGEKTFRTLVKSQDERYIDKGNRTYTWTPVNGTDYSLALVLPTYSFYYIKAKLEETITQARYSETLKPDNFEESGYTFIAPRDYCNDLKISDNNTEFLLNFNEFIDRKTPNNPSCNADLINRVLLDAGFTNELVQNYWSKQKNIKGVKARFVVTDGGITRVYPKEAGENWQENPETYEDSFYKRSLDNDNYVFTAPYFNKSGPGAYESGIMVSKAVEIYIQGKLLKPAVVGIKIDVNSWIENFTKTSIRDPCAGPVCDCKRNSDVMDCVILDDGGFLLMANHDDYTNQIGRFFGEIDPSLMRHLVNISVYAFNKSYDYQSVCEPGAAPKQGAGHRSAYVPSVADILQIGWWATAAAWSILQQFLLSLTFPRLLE
Sequence of Voltage-dependent calcium channel subunit alpha-2/delta-1 (P54289 957-1103 limits assumed): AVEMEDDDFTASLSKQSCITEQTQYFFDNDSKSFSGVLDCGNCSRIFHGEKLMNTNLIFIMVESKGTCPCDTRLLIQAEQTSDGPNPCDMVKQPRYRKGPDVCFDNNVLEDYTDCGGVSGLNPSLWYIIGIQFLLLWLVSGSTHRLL

[5] = Plasma clearance rate was determined in rats at 2 mg/kg, i.v. dose; assay type: ADME, organism-based; parameters: dose 2 mg/kg, route intravenous; details: rat, iv, read-out: Clp
[6] = Half-life period was determined in rats at 20 mg/kg, i.p. dose; assay type: ADME, organism-based; parameters: dose 20 mg/kg, route intraperitoneal; details: rat, in vivo, ip
[7] = Bioavailability was determined in rats at 10 mg/kg, p.o. dose; assay type: ADME, organism-based; details: rat, in vivo, po
[8] = Half-life period was determined in rats at 10 mg/kg, p.o. dose; assay type: ADME, organism-based; parameters: dose 10 mg/kg, route oral; details: rat, in vivo, po
Rattus norvegicus [9] = test: Time required by compound for reaching maximum plasma concentration was determined in rats at 10 mg/kg, p.o. dose; assay type: ADME, organism-based; parameters: dose 10 mg/kg, route oral; details: in vivo, po
[10] = Volume of distribution at steady state was determined in rats at 2 mg/kg, i.v. dose; assay type: ADME, organism-based; parameters: dose 2 mg/kg, route intravenous; details: rat, in vivo, iv, read-out: Vdss
[11] = Plasma concentration was determined in rats at 10 mg/kg, p.o. dose; assay type: ADME, organism-based; parameters: dose 10 mg/kg, route oral; details: rat, po
[12] = Maximum plasma concentration in rats at 20mg/kg, i.p. dose; assay type: ADME, organism-based; parameters: dose 20 mg/kg, route intraperitoneal; details: rat, ip
[13] = Plasma concentration was determined in rats at 20 mg/kg, i.p. dose; assay type: ADME, organism-based; parameters: dose 20 mg/kg, route intraperitoneal; details: rat, ip
Rattus norvegicus [14] = test: Time required by compound for reaching maximum plasma concentration was determined in rats at 20 mg/kg, i.p. dose; assay type: ADME, organism-based; parameters: dose 20 mg/kg, route intraperitoneal; details: in vivo, ip

IC50 [4] | SMILES | further results
180 nM | CCOc1ccc(-n2c(C)c3c(C)nnc(C)c3c2C)cc1 | AUC [1]: 6.4 µM·h; half-life [2]: 54.6 min; Cmax [3]: 3.6 µM; clearance [5]: 18.5 mL/min/kg; half-life [6]: 72 min; bioavailability [7]: 81%; half-life [8]: 270 min; T max (Rattus norvegicus [9]): 2.8 h; Vd [10]: 1.3 L/kg; AUC [11]: 27 µM·h; Cmax [12]: 101 µM; AUC [13]: 141 µM·h; T max (Rattus norvegicus [14]): 18 min
> 10000 nM | CCOc1ccc(-n2c(C)c3c(C)nnc(Nc4ccc(N)cc4)c3c2C)cc1 | 
263 nM | CCOc1ccc(-n2c(C)c3c(C)nnc(CCC(C)C)c3c2C)cc1 | 
250 nM | CCOc1ccc(-n2c(C)c3c(C)nnc(CC)c3c2C)cc1 | 
153 nM | CCOc1ccc(-c2nnc(C)c3c(C)n(-c4ccc(OCC)cc4)c(C)c23)cc1 | 
40 nM | CCOc1ccc(-n2c(C)c3c(C)nnc(NC)c3c2C)cc1 | 
597 nM | CCOc1ccc(-n2c(C)c3c(C)nnc(-c4ccc(OC)cc4OC)c3c2C)cc1 | 
> 10000 nM | CCOc1cccc(-n2c(C)c3c(C)nnc(C)c3c2C)c1 | 
148 nM | CCOc1ccc(-n2c(C)c3c(C)nnc(CCC4CCCC4)c3c2C)cc1 | 
75 nM | CCOc1ccc(-n2c(C)c3c(C)nnc(Nc4ccccc4)c3c2C)cc1 | 
1730 nM | CCOc1ccc(-n2c(C)c3c(C)nnc(-c4ccc(OC(F)(F)F)cc4)c3c2C)cc1 | 
440 nM | CCOc1ccc(-n2c(C)c3c(C)nnc(Nc4ccc(OC)cc4)c3c2C)cc1 | 
701 nM | CCOc1ccc(-n2c(C)c3c(C)nnc(-c4ccc(Cl)cc4)c3c2C)cc1 | 
171 nM | CCOc1ccc(-n2c(C)c3c(C)nnc(CC(C)C)c3c2C)cc1 | 
382 nM | CCOc1ccc(-n2c(C)c3c(C)nnc(-c4ccccc4)c3c2C)cc1 | 
1260 nM | CCOc1ccc(-n2c(C)c3c(C)nnc(-c4ccc(-c5ccccc5)cc4)c3c2C)cc1 | 
170 nM | CCOc1ccc(-n2c(C)c3c(C)nnc(N(C)C)c3c2C)cc1 | 

IC50 [4] | SMILES | further results
170 nM | CCOc1ccc(-n2c(C)c3c(C)nnc(C4CC4)c3c2C)cc1 | 
86 nM | CCOc1ccc(-n2c(C)c3c(C)nnc(-c4ccc(C)cc4)c3c2C)cc1 | 
528 nM | CCOc1ccc(-n2c(C)c3c(C)nnc(-c4ccc(F)cc4)c3c2C)cc1 | 
1600 nM | CCOc1ccc(-n2c(C)c3c(C)nnc(-c4cccc(Cl)c4)c3c2C)cc1 | 
335 nM | CCOc1ccc(-n2c(C)c3c(C)nnc(-c4cccc(OC)c4)c3c2C)cc1 | 
185 nM | CCOc1ccc(-n2c(C)c3c(C)nnc(C4CCCC4)c3c2C)cc1 | 
107 nM | CCOc1ccc(-n2c(C)c3c(C)nnc(-c4ccc(CC)cc4)c3c2C)cc1 | 
> 10000 nM | CCOc1ccc(-n2c(C)c3c(C)nnc(Nc4ccncc4)c3c2C)cc1 | 
240 nM | CCOc1ccc(-n2c(C)c3c(C)nnc(Nc4ccc(C)cc4)c3c2C)cc1 | 
> 10000 nM | COc1ccc(-n2c(C)c3c(C)nnc(C)c3c2C)cc1 | 
577 nM | CCOc1ccc(-n2c(C)c3c(C)nnc(CC(C)CC(C)(C)C)c3c2C)cc1 (stereo not drawn) | 
2180 nM | CCOc1ccc(-n2c(C)c3c(C)nnc(OC)c3c2C)cc1 | 
737 nM | CCOc1ccc(-n2c(C)c3c(C)nnc(-c4ccccc4OC)c3c2C)cc1 | 
4370 nM | CCOc1ccc(-n2c(C)c3c(C)nnc(-c4ccccc4Cl)c3c2C)cc1 | 
235 nM | CCOc1ccc(-n2c(C)c3c(C)nnc(C4CCCCC4)c3c2C)cc1 | 
1850 nM | CCOc1ccccc1-n1c(C)c2c(C)nnc(C)c2c1C | 
360 nM | CCCCCc1nnc(C)c2c(C)n(-c3ccc(OCC)cc3)c(C)c12 | 

SMILES | IC50 [4] | further results
CCOc1ccc(-n2c(C)c3c(C)nnc(CC4CCCC4)c3c2C)cc1 | 211 nM | 
